Patent publication US20250101041A1, “POSITIVE ALLOSTERIC MODULATORS OF THE MUSCARINIC ACETYLCHOLINE RECEPTOR M4” (Vanderbilt University, priority 2022, published 2025)

Molecular target: T1, human mAChR M4 (Homo sapiens, UniProt P08173)
T1 construct: expressed in transfected cells; host or cells: CHO-K1 (American Type Culture Collection), stably expressing hM4 and Gqi5
T1 sequence (P08173 1-479): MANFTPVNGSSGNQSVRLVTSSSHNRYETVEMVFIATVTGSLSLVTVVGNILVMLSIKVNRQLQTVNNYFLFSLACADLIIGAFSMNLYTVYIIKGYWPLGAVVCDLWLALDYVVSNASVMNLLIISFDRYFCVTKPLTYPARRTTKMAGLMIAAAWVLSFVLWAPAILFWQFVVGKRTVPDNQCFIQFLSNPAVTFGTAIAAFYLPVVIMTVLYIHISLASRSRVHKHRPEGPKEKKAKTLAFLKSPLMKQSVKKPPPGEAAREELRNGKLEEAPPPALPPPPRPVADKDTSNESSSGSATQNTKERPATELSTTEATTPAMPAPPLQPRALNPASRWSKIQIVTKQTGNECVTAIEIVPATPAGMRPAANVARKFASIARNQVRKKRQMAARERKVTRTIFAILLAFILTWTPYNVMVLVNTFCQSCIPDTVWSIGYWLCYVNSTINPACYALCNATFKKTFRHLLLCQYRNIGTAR
Experiment: mAChR M4 cell-based functional assay: calcium mobilization (Fluo-4, FDSS), potentiation of EC20 acetylcholine response in hM4-Gqi5 CHO-K1 cells
Conditions: human M4; for Emax at 30 µM: CHO-K1, % ACh maximum at 30 μM; for EC50: potentiation of EC20 acetylcholine response, calcium mobilization
In short: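 CHO-K1 cells stably co-expressing human M4 and chimeric Gqi5, loaded with Fluo-4 AM (50 min, 37 °C). Compounds in 11-point 1:3 series added first; EC20 acetylcholine added at 144 s and again at 230 s. Calcium read on FDSS at 1 Hz; EC50 and Emax from four-parameter logistic fit of potentiated EC20 response.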

Row | SMILES | Emax at 30 µM | EC50
1 | Cc1cc2nccc(=O)n2nc1N1CCc2ncc(-c3cccnc3)cc2C1 [Compound 1-68, 8-methyl-7-(3-(pyridin-3-yl)-7,8-dihydro-1,6-naphthyridin-6(5H)-yl)-4H-pyrimido[1,2-b]pyridazin-4-one] | 84% | 0.358 µM
2 | COc1cncc(-c2cnc3c(c2)CN(c2nn4c(=O)cc(C)nc4cc2C)CC3)c1 [Compound 1-70, 7-(3-(5-methoxypyridin-3-yl)-7,8-dihydro-1,6-naphthyridin-6(5H)-yl)-2,8-dimethyl-4H-pyrimido[1,2-b]pyridazin-4-one] | 92% | 0.274 µM
3 | COc1ccc(-c2cnc3c(c2)CN(c2nn4c(=O)cc(C)nc4cc2C)CC3)cn1 [Compound 1-71, 7-(3-(6-methoxypyridin-3-yl)-7,8-dihydro-1,6-naphthyridin-6(5H)-yl)-2,8-dimethyl-4H-pyrimido[1,2-b]pyridazin-4-one] | 90% | 0.145 µM
4 | COc1cncc(-c2cnc3c(c2)CN(c2nn4c(=O)cc(C(F)(F)F)nc4cc2C)CC3)c1 [Compound 1-74, 7-(3-(5-methoxypyridin-3-yl)-7,8-dihydro-1,6-naphthyridin-6(5H)-yl)-8-methyl-2-(trifluoromethyl)-4H-pyrimido[1,2-b]pyridazin-4-one] | 102% | 0.445 µM
5 | Cc1ccc(-c2cnc3c(c2)CN(c2nn4c(=O)cc(C(=O)NC5(C#N)CC5)nc4cc2C)CC3)cn1 [Compound 1-76, N-(1-cyanocyclopropyl)-8-methyl-7-(3-(6-methylpyridin-3-yl)-7,8-dihydro-1,6-naphthyridin-6(5H)-yl)-4-oxo-4H-pyrimido[1,2-b]pyridazine-2-carboxamide] | 79% | 0.149 µM
6 | Cc1ccc(-c2cnc3c(c2)CN(c2nn4c(=O)cc(C(=O)NCc5cncs5)nc4cc2C)CC3)cn1 [Compound 1-77, 8-Methyl-7-(3-(6-methylpyridin-3-yl)-7,8-dihydro-1,6-naphthyridin-6(5H)-yl)-4-oxo-N-(thiazol-5-ylmethyl)-4H-pyrimido[1,2-b]pyridazine-2-carboxamide] | 74% | 0.285 µM
7 | Cc1ccc(-c2cnc3c(c2)CN(c2nn4c(=O)c(Br)cnc4cc2C)CC3)cn1 [Compound 1-78, 3-bromo-8-methyl-7-(3-(6-methylpyridin-3-yl)-7,8-dihydro-1,6-naphthyridin-6(5H)-yl)-4H-pyrimido[1,2-b]pyridazin-4-one] | 79% | 0.152 µM
8 | Cc1ccc(-c2cnc3c(c2)CN(c2nn4c(=O)cc(C5CC5)nc4cc2C)CC3)cn1 [Compound 1-79, 2-cyclopropyl-8-methyl-7-(3-(6-methylpyridin-3-yl)-7,8-dihydro-1,6-naphthyridin-6(5H)-yl)-4H-pyrimido[1,2-b]pyridazin-4-one] | 109% | 0.066 µM
9 | Cc1ccc(-c2cnc3c(c2)CN(c2nn4c(=O)cc(C(F)F)nc4cc2C)CC3)cn1 [Compound 1-81, 2-(difluoromethyl)-8-methyl-7-(3-(6-methylpyridin-3-yl)-7,8-dihydro-1,6-naphthyridin-6(5H)-yl)-4H-pyrimido[1,2-b]pyridazin-4-one] | 103% | 0.088 µM
10 | Cc1ccc(-c2cnc3c(c2)CN(c2nn4c(=O)cc(C)nc4c(C)c2C)CC3)cn1 [Compound 1-82, 2,8,9-trimethyl-7-(3-(6-methylpyridin-3-yl)-7,8-dihydro-1,6-naphthyridin-6(5H)-yl)-4H-pyrimido[1,2-b]pyridazin-4-one] | 100% | 0.145 µM
11 | Cc1ccc(-c2cnc3c(c2)CN(c2nn4c(=O)c(C)c(C)nc4cc2C)CC3)cn1 [Compound 1-83, 2,3,8-trimethyl-7-(3-(6-methylpyridin-3-yl)-7,8-dihydro-1,6-naphthyridin-6(5H)-yl)-4H-pyrimido[1,2-b]pyridazin-4-one] | 87% | 0.209 µM
12 | Cc1ccc(-c2cnc3c(c2)CN(c2nn4c(=O)c(C)cnc4cc2C)CC3)cn1 [Compound 1-86, 3,8-dimethyl-7-(3-(6-methylpyridin-3-yl)-7,8-dihydro-1,6-naphthyridin-6(5H)-yl)-4H-pyrimido[1,2-b]pyridazin-4-one] | 94% | 0.243 µM
13 | Cc1ccc(-c2cnc3c(c2)CN(c2nn4c(=O)c(Br)cnc4c(C)c2C)CC3)cn1 [Compound 1-88, 3-bromo-8,9-dimethyl-7-(3-(6-methylpyridin-3-yl)-7,8-dihydro-1,6-naphthyridin-6(5H)-yl)-4H-pyrimido[1,2-b]pyridazin-4-one] | 83% | 0.097 µM
14 | Cc1c(N2CCc3ncc(-c4ccc(N(C)C)nc4)cc3C2)nn2c(=O)ccnc2c1C [Compound 1-89, 7-(3-(6-(dimethylamino)pyridin-3-yl)-7,8-dihydro-1,6-naphthyridin-6(5H)-yl)-8,9-dimethyl-4H-pyrimido[1,2-b]pyridazin-4-one] | 70% | 0.231 µM
15 | Cc1c(N2CCc3ncc(-c4ccc(C(F)(F)F)nc4)cc3C2)nn2c(=O)ccnc2c1C [Compound 1-90, 8,9-dimethyl-7-(3-(6-(trifluoromethyl)pyridin-3-yl)-7,8-dihydro-1,6-naphthyridin-6(5H)-yl)-4H-pyrimido[1,2-b]pyridazin-4-one] | 87% | 0.669 µM
16 | Cc1c(N2CCc3ncc(-c4ccc(C5CC5)nc4)cc3C2)nn2c(=O)ccnc2c1C [Compound 1-91, 7-(3-(6-Cyclopropylpyridin-3-yl)-7,8-dihydro-1,6-naphthyridin-6(5H)-yl)-8,9-dimethyl-4H-pyrimido[1,2-b]pyridazin-4-one] | 83% | 0.127 µM
17 | Cc1c(N2CCc3ncc(-c4ccc(N(C)C)nc4)cc3C2)nn2c(=O)cc(C(F)F)nc2c1C [Compound 1-92, 2-(difluoromethyl)-7-(3-(6-(dimethylamino)pyridin-3-yl)-7,8-dihydro-1,6-naphthyridin-6(5H)-yl)-8,9-dimethyl-4H-pyrimido[1,2-b]pyridazin-4-one] | 76% | 0.339 µM

The remaining molecules from weak to strong by EC50, led by results:

Row | Emax at 30 µM | EC50 | SMILES
18 | 46% | 1.25 µM | COc1ccc(-c2cnc3c(c2)CN(c2nn4c(=O)cc(C(F)(F)F)nc4cc2C)CC3)cn1 [Compound 1-75, 7-(3-(6-methoxypyridin-3-yl)-7,8-dihydro-1,6-naphthyridin-6(5H)-yl)-8-methyl-2-(trifluoromethyl)-4H-pyrimido[1,2-b]pyridazin-4-one]
19 | 87% | 0.769 µM | Cc1cc(=O)n2nc(N3CCc4ncc(-c5cccnc5F)cc4C3)c(C)cc2n1 [Compound 1-69, 7-(3-(2-fluoropyridin-3-yl)-7,8-dihydro-1,6-naphthyridin-6(5H)-yl)-2,8-dimethyl-4H-pyrimido[1,2-b]pyridazin-4-one]
20 | 77% | 0.457 µM | Cc1cc(=O)n2nc(N3CCc4ncc(-c5ccc(C(F)(F)F)nc5)cc4C3)c(C)cc2n1 [Compound 1-73, 2,8-dimethyl-7-(3-(6-(trifluoromethyl)pyridin-3-yl)-7,8-dihydro-1,6-naphthyridin-6(5H)-yl)-4H-pyrimido[1,2-b]pyridazin-4-one]
21 | 90% | 0.333 µM | Cc1c(N2CCc3ncc(-c4ccc(C(F)(F)F)nc4)cc3C2)nn2c(=O)cc(C(F)F)nc2c1C [Compound 1-93, 2-(difluoromethyl)-8,9-dimethyl-7-(3-(6-(trifluoromethyl)pyridin-3-yl)-7,8-dihydro-1,6-naphthyridin-6(5H)-yl)-4H-pyrimido[1,2-b]pyridazin-4-one]
22 | 75% | 0.174 µM | Cc1cc(=O)n2nc(N3CCc4ncc(-c5ccc(C6CC6)nc5)cc4C3)c(C)cc2n1 [Compound 1-72, 7-(3-(6-cyclopropylpyridin-3-yl)-7,8-dihydro-1,6-naphthyridin-6(5H)-yl)-2,8-dimethyl-4H-pyrimido[1,2-b]pyridazin-4-one]
23 | 101% | 0.149 µM | Cc1ccc(-c2cnc3c(c2)CN(c2nn4c(=O)cc(C(F)(F)F)nc4c(C)c2C)CC3)cn1 [Compound 1-84, 8,9-dimethyl-7-(3-(6-methylpyridin-3-yl)-7,8-dihydro-1,6-naphthyridin-6(5H)-yl)-2-(trifluoromethyl)-4H-pyrimido[1,2-b]pyridazin-4-one]
24 | 82% | 0.128 µM | Cc1c(N2CCc3ncc(-c4ccc(F)nc4)cc3C2)nn2c(=O)ccnc2c1C [Compound 1-87, 7-(3-(6-Fluoropyridin-3-yl)-7,8-dihydro-1,6-naphthyridin-6(5H)-yl)-8,9-dimethyl-4H-pyrimido[1,2-b]pyridazin-4-one]
25 | 103% | 0.127 µM | Cc1ccc(-c2cnc3c(c2)CN(c2nn4c(=O)cc(C(F)F)nc4c(C)c2C)CC3)cn1 [Compound 1-85, 2-(difluoromethyl)-8,9-dimethyl-7-(3-(6-methylpyridin-3-yl)-7,8-dihydro-1,6-naphthyridin-6(5H)-yl)-4H-pyrimido[1,2-b]pyridazin-4-one]
26 | 104% | 0.064 µM | Cc1ccc(-c2cnc3c(c2)CN(c2nn4c(=O)cc(C(F)(F)F)nc4cc2C)CC3)cn1 [Compound 1-80, 8-methyl-7-(3-(6-methylpyridin-3-yl)-7,8-dihydro-1,6-naphthyridin-6(5H)-yl)-2-(trifluoromethyl)-4H-pyrimido[1,2-b]pyridazin-4-one]
